Measured values: patent US10881060B2, “Endophytes and related methods” (Agriculture Victoria Services PTY LTD, priority 2010, dated 2021)

System: N. lolii (strain ST) mycelia
Assay: Colchicine kill curve of endophyte mycelia
Assay type: cell-based
Conditions: grown 21 days
Procedure: Experiments were conducted to determine the range of colchicine concentrations in which the mycelia of the fungal endophyte N. lolii (strain ST) would grow successfully. Mycelia were grown in colchicine concentrations ranging from 0% to 1% for 21 days and monitored for growth (FIG. 15). At greater than or equal to 0.2% colchicine mycelium growth halted whereas at 0.1% or less colchicine mycelium growth was prolific.

COc1cc2c(c(OC)c1OC)-c1ccc(OC)c(=O)cc1[C@@H](NC(C)=O)CC2 [colchicine]
Colchicine concentration at which mycelium growth halted: greater than or equal to 0.2% | Colchicine concentration at which mycelium growth was prolific: ≤ 0.1%
